This note sets out measurements from PMC11383987 (bioRxiv, 2024).

SMILES strings stand for the structures. Numbering of substitutions follows the chain as printed. Values joined by “and” are separate entries in the source; they are usually repeats but may differ in a detail not shown here. Equal entries are not always repeated.

What all share (type): biochemical
The target of one assay is T1, PIN8 Y150F (Arabidopsis thaliana, UniProt Q9LFP6, Y150F).
T1 sequence (Q9LFP6 1-367 Y150F): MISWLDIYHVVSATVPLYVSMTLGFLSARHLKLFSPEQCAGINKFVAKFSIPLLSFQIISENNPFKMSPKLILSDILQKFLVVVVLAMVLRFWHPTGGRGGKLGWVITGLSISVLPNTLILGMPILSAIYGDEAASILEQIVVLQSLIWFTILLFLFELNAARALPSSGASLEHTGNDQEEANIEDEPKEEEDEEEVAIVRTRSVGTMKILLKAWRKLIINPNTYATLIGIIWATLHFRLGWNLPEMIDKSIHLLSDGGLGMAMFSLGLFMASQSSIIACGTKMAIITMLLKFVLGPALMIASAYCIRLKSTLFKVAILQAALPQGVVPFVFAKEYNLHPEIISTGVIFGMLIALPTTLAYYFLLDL
The assay is described as follows: SSM electrophysiology peak current response, PIN8 Y150F proteoliposomes. Particulars: for Imax: PIN8 Y150F.

The target in a further assay is T2, PIN8 S55A (Arabidopsis thaliana, UniProt Q9LFP6, S55A).
T2 sequence (Q9LFP6 1-367 S55A): T1 sequence (Q9LFP6 1-367 Y150F) with S55A, F150Y
The assay is described as follows: SSM electrophysiology peak current response, PIN8 S55A proteoliposomes. The note with it: for Imax: PIN8 S55A.

For another assay, the target named is T3, PIN8 S266A (Arabidopsis thaliana, UniProt Q9LFP6, S266A).
T3 sequence (Q9LFP6 1-367 S266A): T1 sequence (Q9LFP6 1-367 Y150F) with F150Y, S266A
The experiment in a line: SSM electrophysiology peak current response, PIN8 S266A proteoliposomes. The note with it: for Imax: PIN8 S266A.

For assay [1], the target named is T4, Arabidopsis thaliana PIN8 (Arabidopsis thaliana, UniProt Q9LFP6).
T4 sequence (Q9LFP6 1-367): T1 sequence (Q9LFP6 1-367 Y150F) with F150Y
The assay is described as follows: SSM electrophysiology peak current response, wild-type PIN8 proteoliposomes. The note with it: for EC50: EC50 of peak current response; for EC50 / Imax: WT PIN8, Michaelis-Menten fit; for peak width of SSM current response at various lipid-to-protein ratios (LPR): LPR10 vs LPR50, variation is consistent with transport.

In a further assay the target is T5, PIN8 S55A/S146A (Arabidopsis thaliana, UniProt Q9LFP6, S146A/S55A).
T5 sequence (Q9LFP6 1-367 S55A/S146A): T1 sequence (Q9LFP6 1-367 Y150F) with S55A, S146A, F150Y
The experiment in a line: SSM electrophysiology peak current response, PIN8 S55A/S146A proteoliposomes. The note with it: for Imax: PIN8 S55A/S146A.

Another assay concerns the target T6, PIN8 S146A (Arabidopsis thaliana, UniProt Q9LFP6, S146A).
T6 sequence (Q9LFP6 1-367 S146A): T1 sequence (Q9LFP6 1-367 Y150F) with S146A, F150Y
The assay is described as follows: SSM electrophysiology peak current response, PIN8 S146A proteoliposomes. Particulars: for Imax: PIN8 S146A.

A further assay addresses T7, PIN8 I51Y (Arabidopsis thaliana, UniProt Q9LFP6, I51Y).
T7 sequence (Q9LFP6 1-367 I51Y): T1 sequence (Q9LFP6 1-367 Y150F) with I51Y, F150Y
The experiment in a line: SSM electrophysiology peak current response, PIN8 I51Y proteoliposomes. The note with it: for Imax: PIN8 I51Y.

As a reminder, the EC50 is the concentration needed to bring the measured effect to its halfway point. `O=C(O)COc1ccc(Cl)cc1Cl` [2,4-D, 2,4-dichlorophenoxyacetic acid]: the EC50 at PIN8 Y150F turned out to be 816 ± 275 µM; at PIN8 S55A it was 95 ± 36 µM; on PIN8 S266A, 774 ± 70 µM; in assay [1], 179 ± 10 µM; on PIN8 S55A/S146A it was 38 ± 6 µM; on PIN8 S146A, 164 ± 67 µM. The compound also displayed an EC50 on PIN8 I51Y of 641 ± 77 µM. Also, the Imax at PIN8 Y150F was determined as 8 ± 2 nA; at PIN8 S55A, 6 ± 0.6 nA; on PIN8 S266A, 12 ± 0.7 nA; in assay [1], 17 ± 2 nA; at PIN8 S55A/S146A, 9 ± 2 nA; on PIN8 S146A it was 8 ± 0.9 nA. This compound also displayed an Imax on PIN8 I51Y of 3 ± 0.8 nA. Also, the “peak width of SSM current response at various lipid-to-protein ratios (LPR)” value in assay [1] was “vary with LPR”.
In the case of `O=C(O)COc1ccc(Cl)cc1` [4-CPA, 4-chlorophenoxyacetic acid], the EC50 was 710 ± 228 µM at PIN8 Y150F; 328 ± 15 µM at PIN8 S55A; 2100 ± 290 µM at PIN8 S266A; 800 ± 200 µM in assay [1]; 81 ± 3 µM on PIN8 S55A/S146A; 369 ± 27 µM on PIN8 S146A. The compound also displayed an EC50 at PIN8 I51Y of 1040 ± 252 µM. Also, the Imax at PIN8 Y150F came to 5 ± 0.9 nA; on PIN8 S55A, 11 ± 1 nA; on PIN8 S266A, 7 ± 2 nA; in assay [1], 12 ± 2 nA; at PIN8 S55A/S146A, 11 ± 0.9 nA; on PIN8 S146A, 8 ± 2 nA. Moreover, at PIN8 I51Y, the Imax stood at 3 ± 0.8 nA. Besides, the “peak width of SSM current response at various lipid-to-protein ratios (LPR)” value in assay [1] is listed as “vary with LPR”.
As to `O=C(O)Cc1c[nH]c2ccccc12` [IAA, indole-3-acetic acid], the EC50 was 452 ± 32 µM on PIN8 Y150F; 213 ± 58 µM at PIN8 S55A; 578 ± 183 µM on PIN8 S266A; 250 µM and 254 µM in assay [1]; 341 ± 128 µM on PIN8 S55A/S146A; 498 ± 191 µM at PIN8 S146A. This compound displayed an EC50 on PIN8 I51Y of 547 ± 171 µM. Besides, the Imax came out at 6 ± 2 nA at PIN8 Y150F; 6 ± 1 nA on PIN8 S55A; 4 ± 0.6 nA at PIN8 S266A; 18 ± 3 nA in assay [1]; 7 ± 2 nA on PIN8 S55A/S146A; 8 ± 2 nA at PIN8 S146A. Also, the Imax at PIN8 I51Y is recorded as 2 ± 0.2 nA. The “effect of S55A mutation on affinity” value on PIN8 S55A (PIN8 S55A vs WT) is on record as “remains unchanged”. In assay [1], the “peak width of SSM current response at various lipid-to-protein ratios (LPR)” value is “vary with LPR”. The “effect of S55A/S146A double mutation on affinity” value at PIN8 S55A/S146A (PIN8 S55A/S146A vs WT) was “no effect”.
